Experimental findings from patent publication US6800637B2, “Antidepressant indolealkyl derivatives of heterocycle-fused benzodioxan methylamines” (Wyeth, priority 2002, dated 2004) are described below.

Counter-ions that a name gives are not always drawn.

The target in one data set is T1, serotonin transporter (Rattus norvegicus, UniProt P31652).
T1 construct: displace ^3H-paroxetine from male rat frontal cortical membranes; from tissue; host or cells: male rat frontal cortex membranes
Description: Displacement of 3H-paroxetine from male rat frontal cortical membranes (serotonin transporter affinity). It counts as binding. The note with it: read-out: 5-HT Transporter Affinity KI. On the technique in general: Loss of bound radioactivity is the signal in a displacement assay; it reports binding, not function.

A further data set has as its target T2, human 5-HT1A receptors (Homo sapiens, UniProt P08908).
T2 construct: expressed in transfected cells; host or cells: CHO cells
T2 sequence (P08908 1-422): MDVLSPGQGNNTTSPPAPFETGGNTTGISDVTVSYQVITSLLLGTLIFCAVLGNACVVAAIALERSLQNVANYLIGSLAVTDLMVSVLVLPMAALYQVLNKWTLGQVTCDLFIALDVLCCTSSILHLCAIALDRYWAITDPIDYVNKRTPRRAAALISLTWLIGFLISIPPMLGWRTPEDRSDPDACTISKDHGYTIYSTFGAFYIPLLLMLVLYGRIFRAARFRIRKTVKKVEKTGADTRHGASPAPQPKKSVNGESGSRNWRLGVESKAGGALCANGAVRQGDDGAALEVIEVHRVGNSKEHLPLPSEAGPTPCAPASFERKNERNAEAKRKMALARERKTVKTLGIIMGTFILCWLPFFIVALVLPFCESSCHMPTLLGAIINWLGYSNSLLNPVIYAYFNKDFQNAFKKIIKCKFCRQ
As to the kind of experiment: Displacement of [3H] 8-OHDPAT from 5-HT1A receptor, CHO cells stably transfected with human 5-HT1A receptors. It counts as binding. Particulars: CHO cells with human 5-HT1A receptors, read-out: 5-HT1A Receptor Affinity KI. An excerpt:
High affinity for the serotonin 5-HT1A receptor was established by testing the claimed compound's ability to displace [^3H] 8-OHDPAT (dipropylaminotetralin) from the 5-HT1A serotonin receptor following a modification of the procedure of Hall et al., J. Neurochem. 44, 1685 (1985) which utilizes CHO cells stably transfected with human 5-HT1A receptors.

Data set [1] has as its target T3, cloned human 5HT1A receptors (Homo sapiens, UniProt P08908).
T3 construct: expressed in transfected cells
T3 sequence (P08908 1-422): T2 sequence (P08908 1-422)
Description: 35S-GTPγS binding assay, membranes containing cloned human 5HT1A receptors. The note with it: for IC50: antagonist potency, reversal of the effects of the standard agonist 8-OHDPAT, read-out: 5-HT1A Function IC50; for Emax: maximum inhibitory effect, read-out: 5-HT1A Function (Imax). It counts as biochemical. The protocol:
Antagonist activity at 5-HT1A receptors was established by using a ^35S-GTPγS binding assay similar to that used by Lazareno and Birdsall (Br. J. Pharmacol. 109: 1120, 1993), in which the test compound's ability to affect the binding of ^35S-GTPγS to membranes containing cloned human 5HT1A receptors was determined. Agonists produce an increase in binding whereas antagonists produce no increase but rather reverse the effects of the standard agonist 8-OHDPAT. The test compound's maximum inhibitory effect is represented as the Imax, while its potency is defined by the IC50.
Background: GTPγS resists hydrolysis and so accumulates on activated G proteins.

T1 sequence (P31652 whole entry): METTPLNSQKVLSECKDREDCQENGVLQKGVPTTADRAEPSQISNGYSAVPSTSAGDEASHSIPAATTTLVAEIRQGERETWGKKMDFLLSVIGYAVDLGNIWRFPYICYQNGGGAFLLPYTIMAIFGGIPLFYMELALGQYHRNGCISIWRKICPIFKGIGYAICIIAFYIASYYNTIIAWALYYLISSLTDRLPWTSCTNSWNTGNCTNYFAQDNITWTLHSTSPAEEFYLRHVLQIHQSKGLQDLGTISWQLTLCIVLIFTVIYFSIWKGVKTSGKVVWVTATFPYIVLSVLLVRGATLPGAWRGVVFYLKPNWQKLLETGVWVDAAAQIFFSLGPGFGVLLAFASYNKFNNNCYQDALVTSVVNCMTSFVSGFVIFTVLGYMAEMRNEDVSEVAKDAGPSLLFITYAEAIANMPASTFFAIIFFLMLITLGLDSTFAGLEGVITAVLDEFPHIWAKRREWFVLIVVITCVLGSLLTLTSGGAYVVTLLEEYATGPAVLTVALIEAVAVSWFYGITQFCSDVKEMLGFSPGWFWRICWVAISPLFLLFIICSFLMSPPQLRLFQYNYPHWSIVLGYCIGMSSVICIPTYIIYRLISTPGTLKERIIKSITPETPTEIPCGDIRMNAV

What is called melting point is the temperature, or range, at which the solid turns liquid. `Cc1ccc2c3c(ccc2n1)OCC(CNCCCCn1ccc2ccc(F)cc21)O3` (stereo not drawn) (as salt: hydrochloride) [Example 38, [4-(6-Fluoro-indol-1-yl)-butyl]-(8-methyl-2,3-dihydro-[1,4]dioxino[2,3-f]quinolin-2-ylmethyl)-amine] came in with a melting point of 122 to 127 °C.

The compound `CCN(CCCc1c[nH]c2ccc(F)cc12)CC1COc2ccc3nc(C)ccc3c2O1` (stereo not drawn) (as salt: hydrochloride) [Example 25, N-Ethyl-N-[3-(5-Fluoro-1H-indol-3-yl)propyl]-N-(8-methyl-2,3-dihydro-[1,4]dioxino[2,3-f]quinolin-2-ylmethyl)amine] showed a melting point of 158 to 175 °C.

`Cc1ccc2c3c(ccc2n1)OCC(CN(C)CCCn1ccc2ccc(F)cc21)O3` (stereo not drawn) (as salt: hydrochloride) [Example 34, [3-(6-Fluoro-indol-1-yl)-propyl]-methyl-(8-methyl-2,3-dihydro-[1,4]dioxino[2,3-f]quinolin-2-ylmethyl)-amine] had a melting point of 75.9 to 83.7 °C.

`Cc1ccc2c3c(ccc2n1)OCC(CN(C)CCCCc1cn(C)c2ccc(F)cc12)O3` (stereo not drawn) (as salt: hydrochloride) [Example 44, [4-(5-Fluoro-1-methyl-1H-indol-3-yl)-butyl]-methyl-(8-methyl-2,3-dihydro-[1,4]dioxino[2,3-f]quinolin-2-ylmethyl)-amine] yielded a melting point of 275 to 276 °C.

Regarding `Fc1ccc2[nH]cc(CCCNC[C@H]3COc4ccc5ncccc5c4O3)c2c1` (as salt: hydrochloride) [Example 14, N-(2,3-Dihydro-[1,4]dioxino[2,3-f]quinolin-2-ylmthyl)-N-[3-(5-fluoro-1H-indol-3-yl)propyl]amine], the melting point was 196 to 199 °C.

For `Cc1ccc2c3c(ccc2n1)OC[C@H](CNCCCc1csc2ccc(Cl)cc12)O3` (as salt: fumarate) [Example 50], the melting point lay in the range of 193 to 196 °C.

Compound `Cc1ccc2c3c(ccc2n1)OC[C@H](CNCCCc1c[nH]c2ccc(F)cc12)O3` (as salt: fumarate) [Example 3, N-[3-(5-Fluoro-1H-Indolyl-3-yl)propyl]-N-(8-methyl-2,3-dihydro-[1,4]dioxino[2,3-f]quinolin-2-ylmethyl)amine] yielded a melting point of 207 to 209 °C.

`Cc1ccc2c3c(ccc2n1)OCC(CN(C)CCCc1cn(C)c2ccc(F)cc12)O3` (stereo not drawn) (as salt: hydrochloride) [Example 42, [3-(5-Fluoro-1-methyl-1H-indol-3-yl)-propyl]-methyl-(8-methyl-2,3-dihydro-[1,4]dioxino[2,3-f]quinolin-2-ylmethyl)-amine] returned a melting point of 274 to 275 °C.

Regarding `Cc1ccc2c3c(ccc2n1)OC[C@H](CN(C)CCCc1csc2ccccc12)O3` (as salt: fumarate) [Example 22, N-[3-(1-Benzothien-3-yl)propyl]-N-methyl-N-(8-mthyl-2,3-dihydro-[1,4]dioxino[2,3-f]quinolin-2-ylmthyl)amin], the melting point lay within 123 to 127 °C.

Compound `Cc1ccc2c3c(ccc2n1)OCC(CNCCCn1ccc2c(F)cccc21)O3` (stereo not drawn) (as salt: hydrochloride) [Example 46, [3-(4-Fluoro-indol-1-yl)-propyl]-(8-methyl-2,3-dihydro-[1,4]dioxino[2,3-f]quinolin-2-ylmethyl)-amine] displayed a melting point of 203 to 206 °C.

As for `Cc1ccc2c3c(ccc2n1)OC[C@H](CNCCCc1csc2ccc(F)cc12)O3` (as salt: fumarate) [Example 51, N-[3-(5-Fluoro-1-benzothien-3-yl)propyl]-N-{[(2S)-8-methyl-2,3-dihydro[1,4]dioxino[2,3-f]quinolin-2-yl]methyl}amine], the melting point fell in the range of 117 to 120 °C.

Regarding `CCN(CCCc1c[nH]c2ccc(F)cc12)C[C@H]1COc2ccc3nc(C)oc3c2O1` (as salt: hydrochloride) [Example 36, Ethyl-[3-(5-fluoro-1H-indol-3-yl)-propyl]-(2-methyl-7,8-dihydro-[1,4]dioxino[2,3-g][1,3]benzoxazol-8-ylmethyl)-amine], the melting point is 115 °C (dec.).

Take `COc1cccc2c(CCCNCC3COc4ccc5nc(C)ccc5c4O3)coc12` (stereo not drawn) (as salt: fumarate) [Example 19, N-[3-(7-Methoxy-1-benzofuran-3-yl)propyl]-N-(8-methyl-2,3-dihydro-[1,4]dioxino[2,3-f]quinolin-2-ylmethyl)amine]: the melting point lay in the range of 155 to 160 °C.

As to `Cc1ccc2c3c(ccc2n1)OCC(CNCCCc1c[nH]c2ccccc12)O3` (stereo not drawn) (as salt: fumarate) [Example 6, N-[3-(1H-Indol-3-yl)propyl]-N-(8-methyl-2,3-dihydro-[1,4]dioxino[2,3-f]quinolin-2-ylmethyl)amine], the melting point was in the range of 202 to 203 °C.

In the case of `Cc1ccc2c3c(ccc2n1)OCC(CN(C)CCCCc1c[nH]c2ccc(F)cc12)O3` (stereo not drawn) (as salt: hydrochloride) [Example 43, [4-(5-Fluoro-1H-indol-3-yl)-butyl]-methyl-(8-methyl-2,3-dihydro-[1,4]dioxino[2,3-f]quinolin-2-ylmethyl}-amine], the melting point fell in the range of 274 to 275 °C.

Take `Cc1nc2ccc3c(c2o1)OC(CN(C)CCCc1c[nH]c2ccc(F)cc12)CO3` (stereo not drawn) (as salt: hydrochloride) [Example 24, N-[3-(5-Fluoro-1H-indol-3-yl)propyl]-N-methyl-N-(2-methyl-7,8-dihydro[1,4]dioxino[2,3-g][1,3]benzoxazol-8-ylmethyl)amine]: the melting point is 136 to 139 °C.

What is called Ki is the equilibrium dissociation constant of an inhibitor or competing ligand from its target. For orientation: IC50 means the point on the concentration scale where inhibition reaches its midpoint. As to `Cc1ccc2c3c(ccc2n1)OCC(CN(C)CCCCc1c[nH]c2ccc(F)cc12)O3` (stereo not drawn) [Example 43, [4-(5-Fluoro-1H-indol-3-yl)-butyl]-methyl-(8-methyl-2,3-dihydro-[1,4]dioxino[2,3-f]quinolin-2-ylmethyl}-amine], the Ki on serotonin transporter is 0.5 nM. Also, the Ki at human 5-HT1A receptors worked out at 13.1 nM. Further, in data set [1], the IC50 stood at 344 nM and the Emax came to 100%.

Take `Cc1ccc2c3c(ccc2n1)OC[C@H](CNCCCc1csc2ccccc12)O3` [Example 20]: the Ki on serotonin transporter was found to be 2.82 nM. Besides, the Ki at human 5-HT1A receptors was found to be 0.38 nM. In data set [1], the IC50 was determined as 188 nM and the Emax was 100%.

Turning to `Cc1ccc2c3c(ccc2n1)OCC(CNCCc1csc2ccccc12)O3` (stereo not drawn) [Example 21, N-[2-(1-Benzothien-3-yl)ethyl]-N-(8-methyl-2,3-dihydro-[1,4]dioxino[2,3-f]quinolin-2-ylmethyl)amine], the Ki at serotonin transporter is 62 nM. Also, the Ki at human 5-HT1A receptors worked out at 0.6 nM. Further, in data set [1], the IC50 was determined as 25.9 nM and the Emax was found to be 37.5%.

As for `Cc1ccc2c3c(ccc2n1)OC[C@H](CN(C)CCCc1csc2ccccc12)O3` [Example 22, N-[3-(1-Benzothien-3-yl)propyl]-N-methyl-N-(8-mthyl-2,3-dihydro-[1,4]dioxino[2,3-f]quinolin-2-ylmthyl)amin], the Ki on serotonin transporter was 4.3 nM; at human 5-HT1A receptors, 7.12 nM. Also, the IC50 in data set [1] turned out to be 878 nM. In data set [1], the Emax was found to be 85.5%.

For `Cc1ccc2c3c(ccc2n1)OCC(CNCCCc1c[nH]c2c(F)cc(F)cc12)O3` (stereo not drawn) [Example 13, N-[3-(5,7-Difluoro-1H-indol-3-yl)propyl]-N-(8-methyl-2,3-dihydro-[1,4]dioxino[2,3-f]quinolin-2-ylmethyl)amine], the inhibition constant Ki came out at 1.05 nM on serotonin transporter and 0.32 nM on human 5-HT1A receptors. The IC50 in data set [1] was determined as 64.6 nM. In addition, the Emax in data set [1] was 95%.

For `Cc1ccc2c3c(ccc2n1)OCC(CNCCCc1c[nH]c2c(F)cccc12)O3` (stereo not drawn) [Example 8, N-[3-(7-Fluoro-1H-indol-3-yl)propyl]-N-(8-methyl-2,3-dihydro-[1,4]dioxino[2,3-f]quinolin-2-ylmethyl)amine], the Ki at serotonin transporter stood at 2.07 nM; at human 5-HT1A receptors it was 0.22 nM. The IC50 in data set [1] was 25.8 nM. Moreover, in data set [1], the Emax came out at 94.1%.

In the case of `Cc1ccc2c3c(ccc2n1)OC[C@H](CN(C)CCCc1c[nH]c2ccc(C#N)cc12)O3` [Example 32], the Ki at serotonin transporter was 1 nM. For the same compound, the Ki at human 5-HT1A receptors was determined as 5.46 nM. In data set [1], the IC50 is 233 nM and the Emax is 100%.

With `CCCN(CCCc1c[nH]c2ccc(F)cc12)CC1COc2ccc3nc(C)ccc3c2O1` (stereo not drawn) [Example 45, [3-(5-Fluoro-1H-indol-3-yl)-propyl]-(8-methyl-2,3-dihydro-[1,4]dioxino[2,3-f]quinolin-2-ylmethyl)-propyl-amine], the Ki on serotonin transporter came to 1 nM. Further, on human 5-HT1A receptors, the Ki is 108 nM. Moreover, in data set [1], the IC50 was 1090 nM and the Emax was 100%.
